# Assay results as given in paper PMC4319922, “WIP1 Phosphatase as a Potential Therapeutic Target in Neuroblastoma” (PLoS ONE, 2015).
# Biological target: T1, WIP1 (wild-type p53-induced phosphatase 1, PPM1D) (Homo sapiens, UniProt O15297)
# T1 construct: WIP1-ΔExon6-His-pET-23a+ construct
# T1 sequence (O15297 1-420 limits assumed): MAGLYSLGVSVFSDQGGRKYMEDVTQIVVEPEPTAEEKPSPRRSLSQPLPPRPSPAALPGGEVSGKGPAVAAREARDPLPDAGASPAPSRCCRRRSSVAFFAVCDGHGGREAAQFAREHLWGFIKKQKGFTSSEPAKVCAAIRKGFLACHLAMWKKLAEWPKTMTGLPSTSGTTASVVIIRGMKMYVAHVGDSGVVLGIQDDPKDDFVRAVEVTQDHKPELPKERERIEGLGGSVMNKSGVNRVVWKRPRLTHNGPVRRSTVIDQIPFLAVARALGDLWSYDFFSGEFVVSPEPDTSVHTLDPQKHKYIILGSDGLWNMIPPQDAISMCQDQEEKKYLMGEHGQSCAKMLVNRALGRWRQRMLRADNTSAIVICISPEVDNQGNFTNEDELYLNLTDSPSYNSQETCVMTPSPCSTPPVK
# Experiment: in vitro phosphatase assay, free phosphate release (BIOMOL Green), H2AX pS139 phosphopeptide substrate (p53 pS15 peptide:[…])
# Type: biochemical
smiles,measurement,value
Cc1ncc(Cl)cc1NCc1ccc(C(=O)N[C@@H](CC2CCCC2)C(=O)NC2CC2)s1 [GSK2830371],IC50,123 nM
